Results taken from patent US10787452B2 (Vertex Pharmaceuticals Incorporated, priority 2012, dated 2020).

Each compound was assayed on HCT116 colorectal cancer cells (assay: Cisplatin sensitization assay (96 h cell viability MTS)). Conditions: 96 h MTS, compound plus Cisplatin.
Type: cell-based
How it was run: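 Cisplatin and compound are dosed at the same time, both serially diluted 2-fold from 10 μM final across a full matrix. Plates sit at 37° C in 5% CO2 for 96 h before MTS addition.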
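Note: compound concentration needed to lower the Cisplatin-alone IC50 by a set fold.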

Structure (SMILES) | Cisplatin Sensitization Assay
COC1CCN(C2CCN(c3ccncc3NC(=O)c3c(N)nn4cc(Cl)cnc34)CC2)C1 (centres unmarked) [I-N-95, 2-amino-6-chloro-N-(4-(4-(3-methoxypyrrolidin-1-yl)piperidin-1-yl)pyridin-3-yl)pyrazolo[1,5-a]pyrimidine-3-carboxamide] | ++ (Compounds with a Cisplatin sensitization value >0.02 μM but <0.2 μM are marked with “++.”)
Cn1nccc1-c1ccncc1NC(=O)c1c(N)nn2cc(F)cnc12 [I-C-57, 2-amino-6-fluoro-N-(4-(1-methyl-1H-pyrazol-5-yl)pyridin-3-yl)pyrazolo[1,5-a]pyrimidine-3-carboxamide] | +++ (Compounds with a Cisplatin sensitization value of <0.02 μM are marked with “+++.”)
Nc1nn2cc(F)cnc2c1C(=O)Nc1cnccc1N1CCN2C(=O)CCCC2C1 (centres unmarked) [I-N-244, 2-amino-6-fluoro-N-(4-(6-oxohexahydro-1H-pyrido[1,2-a]pyrazin-2(6H)-yl)pyridin-3-yl)pyrazolo[1,5-a]pyrimidine-3-carboxamide] | +++ (Compounds with a Cisplatin sensitization value of <0.02 μM are marked with “+++.”)
CN(C)C1CN(C2CCN(c3ccncc3NC(=O)c3c(N)nn4cc(Cl)cnc34)CC2)C1 [I-N-94, 2-amino-6-chloro-N-(4-(4-(3-(dimethylamino)azetidin-1-yl)piperidin-1-yl)pyridin-3-yl)pyrazolo[1,5-a]pyrimidine-3-carboxamide] | +++ (Compounds with a Cisplatin sensitization value of <0.02 μM are marked with “+++.”)
CC1(C)CN(C(=O)C2CCN(c3c(F)cncc3NC(=O)c3c(N)nn4cc(F)cnc34)CC2)CCN1 [I-G-27, 2-amino-N-(4-(4-(3,3-dimethylpiperazine-1-carbonyl)piperidin-1-yl)-5-fluoropyridin-3-yl)-6-fluoropyrazolo[1,5-a]pyrimidine-3-carboxamide] | ++ (Compounds with a Cisplatin sensitization value >0.02 μM but <0.2 μM are marked with “++.”)
Cc1cncc(NC(=O)c2c(N)nn3cc(F)cnc23)c1N1CCN(C2CCOCC2)CC1 [I-N-123, 2-amino-6-fluoro-N-(5-methyl-4-(4-(tetrahydro-2H-pyran-4-yl)piperazin-1-yl)pyridin-3-yl)pyrazolo[1,5-a]pyrimidine-3-carboxamide] | ++ (Compounds with a Cisplatin sensitization value >0.02 μM but <0.2 μM are marked with “++.”)
Cn1ncnc1-c1ccncc1NC(=O)c1c(N)nn2cc(F)cnc12 [I-C-65, 2-amino-6-fluoro-N-(4-(1-methyl-1H-1,2,4-triazol-5-yl)pyridin-3-yl)pyrazolo[1,5-a]pyrimidine-3-carboxamide] | ++ (Compounds with a Cisplatin sensitization value >0.02 μM but <0.2 μM are marked with “++.”)
Nc1nn2cc(F)cnc2c1C(=O)Nc1cncc(F)c1N1CCC(C(=O)NCCN2CCC2)CC1 [I-G-42, 2-amino-N-(4-(4-((2-(azetidin-1-yl)ethyl)carbamoyl)piperidin-1-yl)-5-fluoropyridin-3-yl)-6-fluoropyrazolo[1,5-a]pyrimidine-3-carboxamide] | +++ (Compounds with a Cisplatin sensitization value of <0.02 μM are marked with “+++.”)
Nc1nn2cc(Cl)cnc2c1C(=O)Nc1cnccc1N1CCC(N2CC[S+]([O-])CC2)CC1 [I-N-100, 2-amino-6-chloro-N-(4-(4-(1-oxidothiomorpholino)piperidin-1-yl)pyridin-3-yl)pyrazolo[1,5-a]pyrimidine-3-carboxamide] | ++ (Compounds with a Cisplatin sensitization value >0.02 μM but <0.2 μM are marked with “++.”)
Nc1nn2cc(F)cnc2c1C(=O)Nc1cncc(F)c1N1CCN(C(=O)C2CCN(C3COC3)CC2)CC1 [I-N-211, 2-amino-6-fluoro-N-(5-fluoro-4-(4-(1-(oxetan-3-yl)piperidine-4-carbonyl)piperazin-1-yl)pyridin-3-yl)pyrazolo[1,5-a]pyrimidine-3-carboxamide] | ++ (Compounds with a Cisplatin sensitization value >0.02 μM but <0.2 μM are marked with “++.”)
Nc1nn2cc(F)cnc2c1C(=O)Nc1cnccc1N1CCC(CN2CCC(F)(F)C2)CC1 [I-N-197, 2-amino-N-(4-(4-((3,3-difluoropyrrolidin-1-yl)methyl)piperidin-1-yl)pyridin-3-yl)-6-fluoropyrazolo[1,5-a]pyrimidine-3-carboxamide] | +++ (Compounds with a Cisplatin sensitization value of <0.02 μM are marked with “+++.”)
N#CCc1cnc2c(C(=O)Nc3cnccc3OCC(F)(F)F)c(N)nn2c1 [I-O-34, 2-amino-6-(cyanomethyl)-N-(4-(2,2,2-trifluoroethoxy)pyridin-3-yl)pyrazolo[1,5-a]pyrimidine-3-carboxamide] | ++ (Compounds with a Cisplatin sensitization value >0.02 μM but <0.2 μM are marked with “++.”)
Nc1nn2cc(F)cnc2c1C(=O)Nc1cncc(F)c1N1CCC(N2CCCC2=O)CC1 [I-N-147, 2-amino-6-fluoro-N-(5-fluoro-4-(4-(2-oxopyrrolidin-1-yl)piperidin-1-yl)pyridin-3-yl)pyrazolo[1,5-a]pyrimidine-3-carboxamide] | +++ (Compounds with a Cisplatin sensitization value of <0.02 μM are marked with “+++.”)
CS(=O)(=O)CC1CCN(c2ccncc2NC(=O)c2c(N)nn3cc(F)cnc23)CC1 [I-N-215, 2-amino-6-fluoro-N-(4-(4-((methylsulfonyl)methyl)piperidin-1-yl)pyridin-3-yl)pyrazolo[1,5-a]pyrimidine-3-carboxamide] | +++ (Compounds with a Cisplatin sensitization value of <0.02 μM are marked with “+++.”)
CN(C)CC1CCN(c2ccncc2NC(=O)c2c(N)nn3cc(F)cnc23)CC1 [I-N-267, 2-amino-N-(4-(4-((dimethylamino)methyl)piperidin-1-yl)pyridin-3-yl)-6-fluoropyrazolo[1,5-a]pyrimidine-3-carboxamide] | +++ (Compounds with a Cisplatin sensitization value of <0.02 μM are marked with “+++.”)
N#CCc1cnc2c(C(=O)Nc3cnccc3N3CCCCCC3)c(N)nn2c1 [I-N-79, 2-amino-N-(4-(azepan-1-yl)pyridin-3-yl)-6-(cyanomethyl)pyrazolo[1,5-a]pyrimidine-3-carboxamide] | ++ (Compounds with a Cisplatin sensitization value >0.02 μM but <0.2 μM are marked with “++.”)
CN1CCC(S(=O)(=O)N2CCN(c3c(F)cncc3NC(=O)c3c(N)nn4cc(F)cnc34)CC2)CC1 [I-N-175, 2-amino-6-fluoro-N-(5-fluoro-4-(4-((1-methylpiperidin-4-yl)sulfonyl)piperazin-1-yl)pyridin-3-yl)pyrazolo[1,5-a]pyrimidine-3-carboxamide] | +++ (Compounds with a Cisplatin sensitization value of <0.02 μM are marked with “+++.”)
CN1CCN(C(=O)C2(C#N)CCN(c3c(F)cncc3NC(=O)c3c(N)nn4cc(F)cnc34)CC2)CC1 [I-G-25, 2-amino-N-(4-(4-cyano-4-(4-methylpiperazine-1-carbonyl)piperidin-1-yl)-5-fluoropyridin-3-yl)-6-fluoropyrazolo[1,5-a]pyrimidine-3-carboxamide] | +++ (Compounds with a Cisplatin sensitization value of <0.02 μM are marked with “+++.”)
Nc1nn2cc(F)cnc2c1C(=O)Nc1cnccc1-c1cccnc1 [I-C-15, N-([3,4′-bipyridin]-3′-yl)-2-amino-6-fluoropyrazolo[1,5-a]pyrimidine-3-carboxamide] | ++ (Compounds with a Cisplatin sensitization value >0.02 μM but <0.2 μM are marked with “++.”)
Nc1nn2cc(F)cnc2c1C(=O)Nc1cncc(F)c1N1CCC(C(=O)N2CCN(C3COC3)CC2)CC1 [I-G-32, 2-amino-6-fluoro-N-[5-fluoro-4-[4-[4-(oxetan-3-yl)piperazine-1-carbonyl]-1-piperidyl]-3-pyridyl]pyrazolo[1,5-a]pyrimidine-3-carboxamide] | +++ (Compounds with a Cisplatin sensitization value of <0.02 μM are marked with “+++.”)
Nc1nn2cc(F)cnc2c1C(=O)Nc1cncc(F)c1C1=CCN(C2COC2)CC1 [I-C-12, 2-amino-6-fluoro-N-(5-fluoro-1′-(oxetan-3-yl)-1′,2′,3′,6′-tetrahydro-[4,4′-bipyridin]-3-yl)pyrazolo[1,5-a]pyrimidine-3-carboxamide] | +++ (Compounds with a Cisplatin sensitization value of <0.02 μM are marked with “+++.”)
N#CCc1cnc2c(C(=O)Nc3cnccc3OC3CCCC3)c(N)nn2c1 [I-O-43, 2-amino-6-(cyanomethyl)-N-(4-(cyclopentyloxy)pyridin-3-yl)pyrazolo[1,5-a]pyrimidine-3-carboxamide] | +++ (Compounds with a Cisplatin sensitization value of <0.02 μM are marked with “+++.”)
Nc1nn2cc(F)cnc2c1C(=O)Nc1cncc(F)c1N1CCN(C(=O)C2COC2)CC1 [I-N-278, 2-amino-6-fluoro-N-(5-fluoro-4-(4-(oxetane-3-carbonyl)piperazin-1-yl)pyridin-3-yl)pyrazolo[1,5-a]pyrimidine-3-carboxamide] | +++ (Compounds with a Cisplatin sensitization value of <0.02 μM are marked with “+++.”)
CN1CCN(C(=O)c2cnc(-c3ccncc3NC(=O)c3c(N)nn4cc(F)cnc34)c(Cl)c2)CC1 [I-C-46, 2-amino-N-(3-chloro-5-(4-methylpiperazine-1-carbonyl)-[2,4′-bipyridin]-3′-yl)-6-fluoropyrazolo[1,5-a]pyrimidine-3-carboxamide] | + (Compounds with a Cisplatin sensitization value >0.2 μM but <5 μM are marked with “+.”)
Nc1nn2cc(F)cnc2c1C(=O)Nc1cncc(F)c1N1CCN(CC(=O)N2CCC2)CC1 [I-N-228, 2-amino-N-(4-(4-(2-(azetidin-1-yl)-2-oxoethyl)piperazin-1-yl)-5-fluoropyridin-3-yl)-6-fluoropyrazolo[1,5-a]pyrimidine-3-carboxamide] | +++ (Compounds with a Cisplatin sensitization value of <0.02 μM are marked with “+++.”)
Nc1nn2cc(Cl)cnc2c1C(=O)Nc1cnccc1Oc1cccnc1 [I-O-70, 2-amino-6-chloro-N-(4-(pyridin-3-yloxy)pyridin-3-yl)pyrazolo[1,5-a]pyrimidine-3-carboxamide] | +++ (Compounds with a Cisplatin sensitization value of <0.02 μM are marked with “+++.”)
